“Also recorded” adds a separate entry of the source. Counter-ions that a name gives are not always drawn. Starred links: 1 amine or outer side, 2 acyl side, 3 side chain; linkers in the order of their positions; H or OH if unused. Residues, ends and D or L forms follow the SMILES beside them. *: point of attachment. Doxorubicin(3'-N) = COc1cccc2c1C(=O)c1c(O)c3c(c(O)c1C2=O)C[C@@](O)(C(=O)CO)C[C@@H]3O[C@H]1C[C@H](N*)[C@H](O)[C@H](C)O1; Suc = O=C(CCC(=O)[*:2])[*:1]
Legend:
Cathepsin B = Cathepsin B (Homo sapiens, UniProt P07858); assay: In vitro binding to cathepsin absorbed on a 96-well plate (fluorescence of bound drug); conditions: FIG. 1
From the text: The R6 group allows the drug to be able to target cathepsin (Cathepsin B) in the tumor microenvironment and inhibit the activity of cathepsin necessary for tumor growth, development and metastasis. […] The R6 group also allows the drug to have an additional function of targeting tumor, thus the drug has two targeted effects.
The test method was described as follows. Cathepsin was absorbed on a 96-well plate and blocked with BSA. Succinyl-AANL-DOX (SEQ ID NO: 2), S1 and a mixture of S1 and E-64 (an inhibitor for specific binding of cathepsin) were added to allow them to bind to the cathepsin on the 96-well plate. The unbound drugs were removed and the fluorescence of the bound drug was detected.

[1] = Maximum tolerated dose (MTD) / acute toxicity of a single injection in mice; conditions: female, BALB/C, mouse, in vivo
From the text: (§1) Test purpose: to investigate the acute toxicity of the subject new drug formulation via MTD assay by intravenous administration to mice.
(§2) Test drug: S1 and S2 injections, diluted to the corresponding concentrations with physiological saline when tested.
(§3) Animal: the first class BALB/C mice, weighing 19-21 g and all mice being female.
(§4) Method and results: 36 female BALB/C mice weighing 19-21 g were randomly divided into 6 groups according to their body weights, with 6 mice in each group. […] Control tests were performed by injecting 0.2 ml physiological saline or doxorubicin hydrochloride. […] Blood samples were taken on the 3, 5 and 14 days for counting the whole blood cells. Animals were anatomized on day 14 to take the heart, liver, kidney, lung, spleen, and pancreas for HE staining.
(§5) The MTD for intravenous administration of a test drug is an important reference index for drug toxicity.

BALB/C mice = assay: as above
From the text: as §1, §2, §3, §4, §5

MDA-MB231 cells = assay: Efficacy in MDA-MB231 tumor model in nude mice; type: in vivo
From the text: Test purpose: to investigate the anti-tumor efficacy of S1 and S2 via mouse tumor treatment model.
Test drug: S1 and S2 injections, and doxorubicin hydrochloride injection, diluted to corresponding concentrations by physiological saline when testing.
1. Animal: nude mice of 6-8 weeks old, all female.
1) MDA-MB231 cells were purchased from American type culture collection (ATCC) and identified according the specification provided by ATCC.
2) Production of tumor. […] Mice were randomly grouped after the diameter of the tumor reached about 0.3 cm to 0.4 cm. Then treatment began.
According to the clinical application of S1 and S2, drugs were intraperitoneally injected. A dose of 30 mg/kg (<1/2 MTD) was used for the S1 treatment group, 30 mg/kg (<1/2 MTD) for the S2 treatment group, and 4 mg/kg (>1/2 MTD) for doxorubicin hydrochloride. The control group was administered with physiological saline. The drugs were administered twice weekly for three weeks.

4T1 cells = assay: Efficacy in 4T1 tumor metastasis (lung) model in BALB/C mice; type: in vivo
From the text: Test purpose: to investigate the anti-tumor efficacy of S1 and S2 in a tumor metastasis treatment model from BALB/C mice.
Test drug: S1 and S2 injections, and doxorubicin hydrochloride injection, diluted to corresponding concentrations with physiological saline when testing.
1. Animal: BALB/C mice of 6-8 weeks old, all female.
1) 4T1 cells were purchased from American type culture collection (ATCC) and identified according the specification provided by ATCC. Cells were cultivated in DMEM culture medium containing 10% fetal bovine serum at 37° C. and 5% CO2. The cells were passaged for every three days and cells within the 15th passage were used.
2) Production of tumor metastasis. 10^6 […] were subcutaneously injected to the back of the BALB/C mice. Mice were randomly grouped after the tumor grew to about 1.5 cm. The subcutaneous tumor was removed by surgery and drug treatment began. Mice were killed after anesthesia on day 27. The whole lung was taken out and put into Bouin's solution for staining. The number of the tumor metastasized to lung was counted with anatomical microscope.
3) Course of treatment. According to the clinical application of S1 and S2, drugs were intraperitoneally injected. A dose of 10 μmol/kg (<1/10 MTD) was used for the S1 treatment group, 10 μmol/kg (<1/10 MTD) for the S2 treatment group, and 3 μmol/kg (>1/2 MTD) for doxorubicin hydrochloride. The control group was administered with physiological saline. The drugs were administered daily for 8 days.

[2] = Metabolic half-life in mice blood
serum albumin = serum albumin (Mus musculus, UniProt P07724); conditions: blood taken 10 minutes after intravenous tail injection
Experimental: Bloods were taken after 10 minutes and centrifuged to obtain serum. The proteins in the serum were precipitated by 70% ethanol.

[3] = 10 mg/kg, single injection, 6 female BALB/C mice
[4] = lung, day 27, i.p. daily for 8 days, S1, S2 10 μmol/kg, doxorubicin hydrochloride 3 μmol/kg

Sequence of serum albumin (P07724 25-608): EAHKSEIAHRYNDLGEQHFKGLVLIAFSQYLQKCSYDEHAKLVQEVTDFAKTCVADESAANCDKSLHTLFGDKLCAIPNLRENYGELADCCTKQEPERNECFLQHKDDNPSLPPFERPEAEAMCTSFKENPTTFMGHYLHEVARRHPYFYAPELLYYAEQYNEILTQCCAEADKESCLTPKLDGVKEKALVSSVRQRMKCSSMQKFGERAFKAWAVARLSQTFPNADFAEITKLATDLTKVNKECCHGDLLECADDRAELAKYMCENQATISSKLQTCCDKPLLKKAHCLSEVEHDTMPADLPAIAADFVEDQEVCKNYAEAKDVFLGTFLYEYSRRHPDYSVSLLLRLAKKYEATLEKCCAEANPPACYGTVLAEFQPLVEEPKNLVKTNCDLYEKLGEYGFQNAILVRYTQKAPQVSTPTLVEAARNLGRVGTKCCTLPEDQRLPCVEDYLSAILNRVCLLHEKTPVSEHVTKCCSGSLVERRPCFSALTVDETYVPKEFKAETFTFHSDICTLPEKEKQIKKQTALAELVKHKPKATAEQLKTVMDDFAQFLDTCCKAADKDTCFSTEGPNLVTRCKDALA

## CC(C)C[C@H](NC(=O)[C@H]1O[C@@H]1C(=O)O)C(=O)NCCCCN=C(N)N [Example E-64, E-64, reference compound]
Cathepsin B; mixture of S1 and E-64
  Competitive inhibition of the binding of S1 to cathepsin: could competitively inhibit the binding of S1; also recorded: binding can be inhibited by cathepsin inhibitor E-64

## COc1cccc2c1C(=O)c1c(O)c3c(c(O)c1C2=O)C[C@@](O)(C(=O)CO)C[C@@H]3O[C@H]1C[C@H](N)[C@H](O)[C@H](C)O1 [doxorubicin hydrochloride, reference compound]
[1]
  MTD at 17 days: 4 to 8 µmol/kg
BALB/C mice; [3]
  Mortality rate (%): 100%
  Number of dead animal: 6
BALB/C mice; Table 4, toxicity by the method of Test Example 1
  MDA-MB231: 7 mg/kg
MDA-MB231 cells; 20 days, i.p. twice weekly for three weeks, S1, S2 30 mg/kg, doxorubicin hydrochloride 4 mg/kg
  Inhibitory rate of tumor, 20 days: 7.4%
MDA-MB231 cells; 20 days, i.p. twice weekly for three weeks, S1, S2 30 mg/kg, doxorubicin hydrochloride 4 mg/kg, nude mice
  Size of tumor (mm^3), 20 days: 358.7 ± 39.7 mm^3
MDA-MB231 cells; 38 days, i.p. twice weekly for three weeks, S1, S2 30 mg/kg, doxorubicin hydrochloride 4 mg/kg
  Inhibitory rate of tumor, 38 days: 29.1%
MDA-MB231 cells; 38 days, i.p. twice weekly for three weeks, S1, S2 30 mg/kg, doxorubicin hydrochloride 4 mg/kg, nude mice
  Size of tumor (mm^3), 38 days: 881.2 ± 86.5 mm^3
MDA-MB231 cells; day 38, same method as Test Example 2
  Tumor-inhibitory rate (day 38): 29.1%
4T1 cells; [4]
  Inhibitory rate on metastasis: 31.4%
  Number of metastasized tumor: 98 ± 18
4T1 cells; same method as Test Example 3
  Metastasis-inhibitory rate: 31.4%

## COc1cccc2c1C(=O)c1c(O)c3c(c(O)c1C2=O)C[C@@](O)(C(=O)CO)C[C@@H]3O[C@@H]1C[C@H](NC(=O)[C@H](CC(C)C)NC(=O)[C@H](CC(N)=O)NC(=O)[C@H](C)NC(=O)[C@H](C)NC(=O)OC(C)(C)C)[C@H](O)[C@H](C)O1 [BOC-AANL-DOX]
[2]
  Metabolic half-life in the mice blood: 0.7 h

## COc1cccc2c1C(=O)c1c(O)c3c(c(O)c1C2=O)C[C@@](O)(C(=O)CO)C[C@@H]3O[C@H]1C[C@H](NC(=O)[C@H](CC(C)C)NC(=O)[C@H](CC(N)=O)NC(=O)[C@H](C)NC(=O)[C@H](C)NC(=O)CCC(=O)O)[C@H](O)[C@H](C)O1 [Succinyl-AANL-DOX, reference compound] (Suc-AANL-{Doxorubicin(3'-N)})
Cathepsin B; cathepsin absorbed on 96-well plate, blocked with BSA
  Binding to cathepsin: did not bind to absorbed cathepsin
Serum albumin
  Binding to serum albumin / plasma protein in blood: did not bind to serum albumin in the blood plasma
[2]
  Metabolic half-life in the mice blood: 37 h

— patent US9982011B2, “Legumain activated doxorubicin derivative as well as preparation method and application thereof” (priority 2012, dated 2018)
